Experiments:
[1] = system: BafT_J2; experiment: Cellular screening, BaF3 TEL:JAK2 cells (Alamar Blue); type: cell-based; conditions: Mus musculus, 40 hr incubation
Outline: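 BaF3 cells expressing a TEL–JAK2 kinase-domain fusion, growth-factor independent, were exposed to compounds for 40 hr at 37° C, 5% CO2. Screening concentration was 20 μM in the dilution plate, added as 10× final. Viability read with Alamar Blue after a further 4-6 h, at 544 nm.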

[2] = system: BafT_J3; experiment: Cellular screening, BaF3 TEL:JAK3 cells (Alamar Blue); type: cell-based; conditions: Mus musculus, 40 hr incubation
Outline: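 Growth-factor-independent BaF3 tet-off cells express a TEL(nt 1–487)/JAK3 kinase-domain fusion and are grown without WEHI 3B medium. Compound plates were prepared at 20 μM and added as 10× final. After 40 h at 37 °C, 5% CO2, Alamar Blue was added for 4–6 h and read at 544 nm.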

[3] = biological target: T1, human JAK3 (Homo sapiens, UniProt P52333); experiment: JAK3 kinase enzyme assay (Alphascreen); type: biochemical; conditions: 80 or 625 um ATP
T1 construct: The kinase domain of human JAK3 was amplified; GST (N); made in house; host or cells: Sf9 (Spodoptera frugiperda) insect cells, baculovirus
T1 sequence (P52333 822-1111 limits assumed): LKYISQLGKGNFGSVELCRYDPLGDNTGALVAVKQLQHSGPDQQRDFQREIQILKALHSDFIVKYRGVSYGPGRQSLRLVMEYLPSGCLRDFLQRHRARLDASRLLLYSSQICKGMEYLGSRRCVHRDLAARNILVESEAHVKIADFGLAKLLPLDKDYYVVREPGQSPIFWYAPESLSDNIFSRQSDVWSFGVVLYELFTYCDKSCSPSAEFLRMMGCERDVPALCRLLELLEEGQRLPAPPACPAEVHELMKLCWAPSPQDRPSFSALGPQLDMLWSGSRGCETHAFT
Outline: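 Sf9-expressed GST-tagged human JAK3 kinase domain was pre-incubated 20 min with compound at 5 μM final in HEPES pH 7.5 buffer. Then 60 or 90 min reaction with 80 or 625 μM ATP and biotinylated peptide substrate at 111 or 133 μM. AlphaScreen phosphotyrosine acceptor and streptavidin donor beads, 2–3 h.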

[4] = biological target: T2, human JAK2 (Homo sapiens, UniProt O60674); experiment: JAK2 kinase enzyme assay (Alphascreen); type: biochemical; conditions: 80 or 625 um ATP
T2 construct: The kinase domain of human JAK2 was amplified; GST (N); made in house; host or cells: Sf9 (Spodoptera frugiperda) insect cells, baculovirus
T2 sequence (O60674 849-1124 limits assumed): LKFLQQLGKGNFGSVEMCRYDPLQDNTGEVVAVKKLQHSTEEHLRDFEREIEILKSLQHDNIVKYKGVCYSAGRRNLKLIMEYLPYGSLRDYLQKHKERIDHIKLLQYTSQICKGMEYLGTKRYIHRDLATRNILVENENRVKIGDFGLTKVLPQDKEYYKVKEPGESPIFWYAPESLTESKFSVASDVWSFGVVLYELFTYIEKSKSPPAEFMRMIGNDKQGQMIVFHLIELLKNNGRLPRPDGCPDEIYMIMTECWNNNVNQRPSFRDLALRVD
Outline: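 Compounds at 5 μM final were pre-incubated 20 min with Sf9-expressed GST-JAK2 kinase domain in HEPES pH 7.5 phosphotyrosine buffer, then incubated 60 or 90 min with 80 or 625 um ATP. Substrate was biotinylated peptide 1 (111 μM final) or peptide 2 (133 μM final). Phosphotyrosine was detected by AlphaScreen acceptor/streptavidin donor beads after 2–3 h.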

[5] = system: BAF3wt; experiment: Cellular screening, BaF3 wild-type cells (Alamar Blue); type: cell-based; conditions: Mus musculus, 40 hr incubation
Outline: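 BaF3 wild-type cells grown in DMEM with 10% FCS and 10% WEHI 3B conditioned medium, incubated with compound for 40 h at 37 °C, 5% CO2. Viability read by Alamar Blue after a further 4-6 h, at 544 nm; screening concentration 20 μM in dilution plate.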

[6] = biological target: T3, human JAK1 (Homo sapiens, UniProt P23458); experiment: JAK1 kinase enzyme assay (Alphascreen); type: biochemical; conditions: 80 or 625 um ATP
T3 construct: The kinase domain of human JAK1 was amplified; GST (N); made in house; host or cells: Sf9 (Spodoptera frugiperda) insect cells, baculovirus
T3 sequence (P23458 875-1153 limits assumed): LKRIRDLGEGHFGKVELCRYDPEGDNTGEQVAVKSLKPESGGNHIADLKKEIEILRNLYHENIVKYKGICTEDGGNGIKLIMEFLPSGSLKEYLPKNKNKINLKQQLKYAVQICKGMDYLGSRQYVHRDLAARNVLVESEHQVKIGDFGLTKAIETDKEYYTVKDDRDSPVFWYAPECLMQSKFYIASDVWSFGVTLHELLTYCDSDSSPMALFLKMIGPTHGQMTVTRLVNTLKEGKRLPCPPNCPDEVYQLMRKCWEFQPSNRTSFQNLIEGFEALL
Experimental: For screening purposes, compounds (in 100% DMSO) were warmed at 37 degrees for at least 20 minutes before use. A […] stock was initially made in assay buffer, where the final concentration of DMSO was 0.3%. The stocks were then diluted in 384 well Optiplates (Packard) where the final concentration of the compound was 5 μM.
The kinase domain of human JAK1 was amplified from U937mRNA using the polymerase chain reaction with the following primers: […]
The JAK1 PCR products were cloned into the pDest20 destination vector (Gibco). The JAK1 plasmid was then transformed into competent DH10Bac cells (Gibco), and the recombinant baculovirus was prepared via Sf9 insect cell transfection.
Baculovirus preparations from each of the JAK family members were infected into one litre of Sf9 (Spodoptera frugiperda) cells (Invitrogen) grown in SF900II serum free medium (Invitrogen) to a cell density of approximately 2×10^6 cells/ml. Cells were infected with virus at a cell culture to virus stock ratio of 20:1. Cells were harvested and lysed 48 hours post infection. The GST-tagged JAK kinase domains were purified by affinity chromatography on a GSH agarose column (Scientifix).
Kinase assays were performed in 384 well Optiplates (Packard) using an Alphascreen Protein Tyrosine KinaseP100 detection kit The compounds were pre-incubated with affinity purified PTK domain in the presence of phosphotyrosine assay buffer (10 mM HEPES, pH 7.5, 100 mM MgCl2, 25 mM NaCl, 200 mM sodium vanadate and 0.1% Tween 20) for 20 minutes. The compounds were then incubated with substrate in the presence of either 80 or 625 um ATP for 60 or 90 minutes. The substrate used was either susbtrate-1 with the sequence biotin-EGPWLEEEEEAYGWMDF-NH2 [SEQ. ID. NO. 13] (final concentration 111 μM) or susbtrate-2 substrate with the sequence biotin-EQEDEPEGDYFEWLEPE (final concentration 133 μM). Alphascreen phosphotyrosine acceptor beads followed by streptavidin donor beads at a concentration of 1/100 in stop buffer were added to each well under subdued light and incubated for 2-3 hours. The Alphascreen plates were read on a Packard Fusion Alpha instrument.

[7] = system: CTLL2; experiment: Cellular screening, CTLL2 cells (Alamar Blue); type: cell-based; conditions: Mus musculus, CTLL-2, 40 hr incubation
Outline: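 CTLL2 cells in late log phase were incubated with compounds, from screening plates at 20 μM, for 40 hr at 37° C, 5% CO2. Viability was read by Alamar Blue, added for a further 4-6 hours, with the read at 544 nm.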

SMILES | IC50 [1] [nM] | IC50 [2] [nM] | IC50 [3] [nM] | IC50 [4] [nM] | IC50 [5] [nM] | IC50 [6] [nM] | IC50 [7] [nM] | IC50 ([2]; given as number) [nM] | IC50 ([5]; given as number) [nM] | IC50 ([7]; given as number) [nM]
NS(=O)(=O)c1ccc(-c2csc3cnc(Nc4ccc(N5CCOCC5)cc4)nc23)cc1 [Compound 11, 4-(2-(4-morpholinophenylamino)thieno[3,2-d]pyrimidin-7-yl)benzenesulfonamide] | < 1000 | < 5000 | < 100 | < 100 | < 5000 | < 100 | < 1000 |  |  | 
CCNC(=O)Nc1ccc(-c2csc3cnc(Nc4ccc(N5CCOCC5)cc4)nc23)cc1OC [Compound 13, 1-ethyl-3-(2-methoxy-4-(2-(4-morpholinophenylamino)thieno[3,2-d]pyrimidin-7-yl)phenyl)urea] | < 1000 | < 5000 | < 100 | < 100 | < 1000 | < 500 | < 5000 |  |  | 
CS(=O)(=O)Nc1ccc(-c2csc3cnc(Nc4ccc(N5CCOCC5)cc4)nc23)cc1 [Compound 14, N-(4-(2-(4-morpholinophenylamino)thieno[3,2-d]pyrimidin-7-yl)phenyl)methanesulfonamide] | < 1000 | < 1000 | < 100 | < 100 | < 1000 | < 100 | < 1000 |  |  | 
COc1cc(-c2csc3cnc(Nc4ccc(N5CCOCC5)cc4)nc23)ccc1O [Compound 15, 2-methoxy-4-(2-(4-morpholinophenylamino)thieno[3,2-d]pyrimidin-7-yl)phenol] | < 1000 |  | < 100 | < 100 |  | < 100 |  | > 20000 | > 20000 | > 20000
N#CCC(=O)Nc1cccc(-c2csc3cnc(Nc4ccc(N5CCOCC5)cc4)nc23)c1 [Compound 16, 2-cyano-N-(3-(2-(4-morpholinophenylamino)thieno[3,2-d]pyrimidin-7-yl)phenyl)acetamide] | < 1000 | < 1000 | < 100 | < 100 | < 1000 | < 100 | < 1000 |  |  | 
CS(=O)(=O)Nc1cccc(-c2csc3cnc(Nc4ccc(N5CCOCC5)cc4)nc23)c1 [Compound 18, N-(3-(2-(4-morpholinophenylamino)thieno[3,2-d]pyrimidin-7-yl)phenyl)methanesulfonamide] | < 1000 | < 1000 | < 100 | < 100 | < 1000 | < 100 | < 1000 |  |  | 
CS(=O)(=O)N(CC#N)c1cccc(-c2csc3cnc(Nc4ccc(N5CCOCC5)cc4)nc23)c1 [Compound 31, N-(cyanomethyl)-N-(3-(2-(4-morpholinophenylamino)thieno[3,2-d]pyrimidin-7-yl)phenyl)methanesulfonamide] | < 1000 | < 1000 | < 100 | < 100 | < 1000 | < 100 | < 1000 |  |  | 
Cn1cc(-c2ccc(S(N)(=O)=O)cc2)c2nc(Nc3ccc(N4CCOCC4)cc3)ncc21 [Compound 34, 4-(5-methyl-2-(4-morpholinophenylamino)-5H-pyrrolo[3,2-d]pyrimidin-7-yl)benzenesulfonamide] | < 1000 |  | < 500 | < 100 | < 20000 | < 100 |  | > 20000 |  | > 20000
CC(C)(C)NS(=O)(=O)c1cccc(-c2csc3cnc(Nc4cccc(N5CCOCC5)c4)nc23)c1 [Compound 47, N-tert-butyl-3-(2-(3-morpholinophenylamino)thieno[3,2-d]pyrimidin-7-yl)benzenesulfonamide] | < 5000 | < 5000 | < 500 | < 100 | < 5000 | < 100 | < 5000 |  |  | 
CC(C)(C)NS(=O)(=O)c1cccc(-c2csc3cnc(Nc4cccc(CO)c4)nc23)c1 [Compound 48, N-tert-butyl-3-(2-(3-(hydroxymethyl)phenylamino)thieno[3,2-d]pyrimidin-7-yl)benzenesulfonamide] | < 1000 | < 1000 | < 500 | < 100 | < 1000 | < 100 | < 1000 |  |  | 
COc1cc(Nc2ncc3scc(-c4cccc(S(=O)(=O)NC(C)(C)C)c4)c3n2)cc(OC)c1OC [Compound 50, N-tert-butyl-3-(2-(3,4,5-trimethoxyphenylamino)thieno[3,2-d]pyrimidin-7-yl)benzenesulfonamide] | < 1000 | < 1000 | < 500 | < 100 | < 1000 | < 100 | < 1000 |  |  | 
COc1ccc(Nc2ncc3scc(-c4cccc(S(=O)(=O)NC(C)(C)C)c4)c3n2)cc1OC [Compound 53, N-tert-butyl-3-(2-(3,4-dimethoxyphenylamino)thieno[3,2-d]pyrimidin-7-yl)benzenesulfonamide] | < 1000 | < 1000 | < 500 | < 100 | < 1000 | < 100 | < 5000 |  |  | 
